# According to US20070088043A1, “Novel HDAC inhibitors” (ORCHID RESEARCH LABORATORIES LIMITED., priority 2005, published 2007):
# How the values were obtained:
# [1] = test system: HDAC (Mouse Liver Extract); test: Histone Deacetylase (HDAC) Inhibition Assay using Boc-Lys (Ac)-AMC Substrate; format: biochemical; conditions: mouse liver enzyme, NA = No Activity; for HDAC Inhibition 1 μM / HDAC Inhibition 10 μM: in % (unit assumed)
# Excerpt: HDAC Activitv Screening: Histone Deacetylase (HDAC) Inhibition Assay using Boc-Lys (Ac)-AMC Substrate:
# Inhibition of HDAC has been implicated to modulate transcription and to induce apoptosis or differentiation in cancer cells. The fluorometric assay provides a fast and fluorescence based method that eliminates radioactivity, extractions or chromatography, as used in traditional assays. The assay based on two steps. First, the HDAC fluorometric substrate, which comprises an acetylated lysine side chain, is incubated with a sample containing HDAC activity (Mouse Liver Extract). Deacetylation of the substrate sensitizes the substrate, in the second step; treatment with the Trypsin stop solution produces a fluorophore that can be easily analyzed using fluorescence plate reader.
# Assay was done in 96 well black microplate and total volume of the assay is 100 ul. Mouse liver enzyme is diluted 1:6 with HDAC buffer. Enzyme cocktail made of 10 ul of diluted enzyme and 30 ul of HDAC buffer. 40 ul of enzyme cocktail dispensed into each well. 10 ul of different concentrations of inhibitor added in to each well, except enzyme control well. Preincubated the plate at 30° C. for 5 minutes. The HDAC reaction is started by adding 50 ul of HDAC substrate (Boc-Lys (Ac)-AMC Substrate) solution. Incubated the plate at 30° C. for 30 minutes. Adding 100 ul of Trypsin stop solution stops the reaction. The plate is incubated again at 30° C. for 20-30 minutes. The release of AMC is monitored by measuring the fluorescence at excitation wavelength of 365 or 360 nm and emission wavelength of 440 or 460 nm. Buffer and substrate alone kept for blank subtraction. (Dennis Wegener et al, Anal. Biochem, 321, 2003, 202-208).
# [2] = test system: NCIH460, HCT116, MDAMB231/U251; test: Anti-cancer screen, mean GI50 over the cell lines; format: cell-based; conditions: in µM
# Description: (§1) Experimental drugs are screened for anti-cancer activity in three cell lines for their GI50, TGI and LC50 values (using five concentrations for each compound). The cell lines are maintained in DMEM containing 10% fetal bovine serum. 96 well micro titer plates are inoculated with cells in 100 μL for 24 h at 37° C., 5% CO2, 95% air and 100% relative humidity. 5000 HCT 116 cells/well, 5000 NCIH 460 cells/well and 5000 U251 cells/well are plated. A separate plate with these cell lines is also inoculated to determine cell viability before the addition of the compounds (T0).
# (§2) Following 24-hour incubation, experimental drugs are added to the 96 well plates. Each plate contains one of the above cell lines and the following in triplicate: five different concentrations (0.01, 0.1, 1, 10 and 100 μM) of four different compounds, appropriate dilutions of a cytotoxic standard and control (untreated) wells. Compounds are dissolved in DMSO to make 20 mM stock solutions on the day of drug addition and frozen at −20° C. Serial dilutions of these 20 mM stock solutions are made in complete growth medium such that 100 μL of these drug solutions in medium, of final concentrations equaling 0.01, 0.1, 1, 10 and 100 μM can be added to the cells in triplicate. Standard drugs whose anti-cancer activity has been well documented and which are regularly used are doxorubicin and SAHA.
# (§3) For To measurement, 24 hours after seeding the cells, 10 μL of 3-(4,5-Dimethyl-2-thiazolyl)-2,5-diphenyl-2H-tetrazolium (MTT) solution per well is added and incubation carried out for 3 hours at 37° C., 5% CO2, 95% air and 100% relative humidity, protected from light. Cells incubated with compounds for 48 hours are treated similarly except with the addition of 20 μL MTT solution per well and a subsequent incubation under the same conditions. After 3 hours of MTT incubation, well contents are aspirated carefully followed by addition of 150 μL DMSO per well. Plates are agitated to ensure solution of the formazan crystals in DMSO and absorbance read at 570 nm. […]
# [3] = test system: MDAMB231/U251; test: Anti-cancer screen (MTT), MDAMB231/U251; format: cell-based; conditions: MDAMB231/U251 cells, 48 hours; for GI50: concentration to decrease % growth by 50%; for IC100: concentration to decrease % growth by 100%, read-out: MDAMB231/U251 TGI; for LC50: concentration to decrease % growth by 150%
# Description: as §1, §2, §3
# [4] = test system: HCT 116 cells; test: Anti-cancer screen (MTT), HCT116; format: cell-based; conditions: Homo sapiens, HCT-116, HCT116 cells, 48 hours, MTT; for GI50: concentration to decrease % growth by 50%; for IC100: concentration to decrease % growth by 100%, read-out: HCT116 TGI; for LC50: concentration to decrease % growth by 150%
# Description: as §1, §2, §3
# [5] = test system: NCIH 460 cells; test: Anti-cancer screen (MTT), NCIH460; format: cell-based; conditions: Homo sapiens, NCI-H460, NCIH460 cells, 48 hours, MTT; for GI50: concentration to decrease % growth by 50%; for IC100: concentration to decrease % growth by 100%, read-out: NCIH460 TGI; for LC50: concentration to decrease % growth by 150%
# Description: as §1, §2, §3
SMILES,HDAC Inhibition 1 μM [1],HDAC Inhibition 10 μM [1],Mean GI50 [2],GI50 [3] [µM],IC100 [3] [µM],LC50 [3] [µM],GI50 [4] [µM],IC100 [4] [µM],LC50 [4] [µM],GI50 [5] [µM],IC100 [5] [µM],LC50 [5] [µM],IC50 [1] [µM]
"Cc1csc(NC(=O)CN2CCN(C(=O)CCCCCCC(=O)NO)CC2)n1 [Example 33, 8-{4-[2-(4-Methyl-1,3-thiazol-2-ylamino)-2-oxoethyl]piperazin-1-yl}-N-hydroxy-8-oxo octanamide]",50.09,92.38,51.67,10,98,> 100,55,> 100,> 100,90,> 100,> 100,
"CC(=O)SCCCCC(=O)N1CCN(CC(=O)Nc2nc(C(C)(C)C)cs2)CC1 [Example 14, 2-[4-(5-Thioacetylpentanoyl)piperazin-1-yl]-N-(4-tertiarybutyl-1,3-thiazol-2-yl)acetamide]",23.11,57.33,>100,0.08,27,> 100,50,> 100,> 100,> 100,> 100,> 100,
"CC(=O)SCCCCCC(=O)N1CCN(CC(=O)Nc2nc3ccc(C)cc3s2)CC1 [Example 12, 2-[4-(6-Thioacetylhexanoyl)piperazin-1-yl]-N-(6-methyl-1,3-benzothiazol-2-yl)acetamide]",57.31,85.59,17,19,65,> 100,7,> 100,≥ 100,25,75,> 100,
"CC(=O)SCCCCCC(=O)N1CCN(CC(=O)Nc2ccccc2)CC1 [Example 18, 2-[4-(6-Thioacetylhexanoyl)piperazin-1-yl]-N-(phenyl-2-yl)acetamide]",65.15,94.50,46.50,> 100,> 100,> 100,63,> 100,> 100,30,> 100,> 100,
"COc1cccc2sc(NC(=O)CN3CCN(C(=O)CCCCCSC(C)=O)CC3)nc12 [Example 21, 2-[4-(6-Thioacetylhexanoyl)piperazin-1-yl]-N-(4-methoxy-1,3-benzothiazol-2-yl)acetamide]",82.9,96.2,61,38,> 100,> 100,52,> 100,> 100,93,> 100,> 100,0.57
"CC(=O)SCCCCCC(=O)N1CCN(CC(=O)Nc2nc3c(C)cccc3s2)CC1 [Example 10, 2-[4-(6-Thioacetylhexanoyl)piperazin-1-yl]-N-(4-methyl-1,3-benzothiazol-2-yl)acetamide]",54.06,87.16,1.80,2,9,> 100,3,50,> 100,0.5,2,95,1.5
O=C(CN1CCN(C(=O)CCCCCNO)CC1)Nc1nc2ccccc2s1 [Example 26],,4.5,15,27,85,> 100,8.6,> 100,> 100,9.5,92,> 100,
CC(=O)SCCCCCC(=O)N1CCN(C(=O)CN2CCOCC2)CC1 [Example 2],8.31,34.56,>100,> 100,> 100,> 100,> 100,> 100,> 100,> 100,> 100,> 100,
"CC(=O)SCCCCCC(=O)N1CCN(CC(=O)Nc2nc3ccccc3s2)CC1 [Example 6, 2-[4-(6-Thioacetylhexanoyl)piperazin-1-yl]-N-(1,3-benzothiazol-2-yl)acetamide]",63.40,83.30,2.00,0.01,0.4,> 100,4.5,42,> 100,0.8,53,> 100,0.062
CC(=O)NCCCCCC(=O)N1CCN(CC(=O)Nc2nc3ccccc3s2)CC1 [Example 43],2.61,5.24,>100,> 100,> 100,> 100,90,> 100,> 100,> 100,> 100,> 100,
"O=C(CCCCCCC(=O)N1CCN(CC(=O)Nc2nccs2)CC1)NO [Example 34, 8-{4-[2-(1,3-Thiazol-2-ylamino)-2-oxoethyl]piperazin-1-yl}-N-hydroxy-8-oxo octanamide]",45.65,89.86,28,6,74,> 100,50,> 100,> 100,> 100,> 100,> 100,
N[C@H](CO)C(=O)NCCCCCC(=O)N1CCN(CC(=O)Nc2nc3ccccc3s2)CC1 [Example 44],5.45,1.79,>100,> 100,> 100,> 100,> 100,> 100,> 100,> 100,> 100,> 100,
